Where two headings read alike, the source gives them in different places.
How the values were obtained:
P-glycoprotein (P-gP) = tested on: P-glycoprotein (P-gP); set-up: method as in Investigator Brochure; conditions: in vitro studies; ref Investigator Brochure; cited from earlier work
sigmoid colon tissue = assay: Histology of sigmoid colon biopsies (Geboes score, Nancy index, neutrophils); type: in vivo, human
Experimental: (§1) Tissue biopsies from the sigmoid colon were obtained before start of treatment (up to Day −3) and at the end of treatment (Day 7). For operational reasons, biopsies were taken 2−4.5 h post‐dose on Day 7. Stool samples were obtained at screening, before start of treatment, throughout the study, and at the 14‐day follow‐up visit. Levels of calprotectin were determined in stool samples. Sigmoid colon tissue was processed for RNA and DNA extraction as well as for single‐cell analysis, subsequent transcriptomic analysis, and identification of PD biomarkers. Sigmoid colon tissue samples were also processed for histology (hematoxylin and eosin staining, immunohistochemistry, fluorescence in situ hybridization) in order to characterize the cell types present (i.e., neutrophils and inflammatory monocytes). Histological analysis was performed on sigmoid colon tissue samples (from baseline and Day 7) using the disease‐specific histological indices Geboes score[23] and Nancy index.[24] Caspase‐1 (pro and active form) was assessed using a validated WES‐assay (manuscript in preparation).

calprotectin = assay: Stool calprotectin in UC patients; type: in vivo, human; conditions: Day 7, mean (± SD), selnoflast arm; results called uninterpretable (8/19 baseline samples not per protocol)
Experimental: as §1

IL‐18 = assay: Plasma IL‐18 (SIMOA) in UC patients; type: in vivo, human; conditions: 450 mg QD, 7 days
Experimental: (§2) Blood samples were drawn pre‐dose and at various timepoints and placed in TruCulture whole blood collection and culture tubes that were pre‐filled with lipopolysaccharide (LPS) (final working concentration of 100 ng/mL LPS after addition of 1 mL of blood to the LPS‐containing Truculture tubes). Following 24 h incubation, TruCulture supernatants were collected, stored, and levels of secreted IL‐1β were subsequently measured in order to understand how these responded to NLRP3 inhibition by selnoflast. The levels of IL‐1β were also quantified in plasma K2EDTA samples using the same SIMOA IL‐1β Assay Kit (Quanterix). The quantitative range of the method was 0.196 to 490 pg/mL for plasma and 4.01 to 1470 pg/mL in Truculture supernatants. Plasma samples were also assessed for IL‐18, using a commercial SIMOA IL‐18 Assay Kit (Quanterix; the quantitative range for plasma was 0.0200–45.0 pg/mL).

[1] = tested on: IL‐1β release in activated human monocyte‐derived macrophages; set-up: method as in unpublished results; conditions: in vitro, ref unpublished results; cited from earlier work
[2] = tested on: IL‐1 gene signature (CXCL1, CXCL2, CXCL3, CXCL5, CXCL6, CCL2, IL6, TNFAIP6); assay: IL‐1 gene signature in sigmoid colon tissue by qPCR; type: in vivo, human; conditions: mean [± SD], selnoflast arm, median log2FC of 8 genes
Experimental: A predefined IL‐1 gene signature comprising eight genes (i.e., CXCL1, CXCL2, CXCL3, CXCL5, CXCL6, CCL2, IL6, TNFAIP6) relevant in the context of IBD was assessed in RNA extracted from the sigmoid colon tissue. The signature had been determined by combining gene expression data that met the following criteria: (1) overlapping expression profiles (upregulation by IL‐1β stimulation) in multiple cell types,[25] (2) differential expression in relevant cell types across published and proprietary single‐cell RNA‐sequencing (scRNA‐seq) datasets involving IBD patients and controls[26] and (3) co‐expression with the IL1R1 receptor and differential colonic gene expression between UC patients and healthy individuals. The 8‐gene panel was then assessed by quantitative PCR (qPCR) before and after treatment (baseline and Day 7), normalized to a set of housekeeping genes (B2M, GusB, HPRT1, MRLP19) and log2 fold changes (log2FC) from baseline were reported per gene as well as across the eight genes (median log2FC = gene signature).

NLRC4 = tested on: NLRC4; set-up: method as in unpublished results; conditions: ref unpublished results; cited from earlier work
[3] = set-up: method as in Investigator Brochure; conditions: ref Investigator Brochure, cited from earlier work
[4] = tested on: IL‐1β release in ex vivo stimulated whole blood; set-up: method as in unpublished results, study IZD334-001; conditions: healthy subjects, 450 mg QD, ref unpublished results, study IZD334-001, cited from earlier work
[5] = tested on: Breast Cancer Resistance Protein (BCRP); set-up: method as in Investigator Brochure; conditions: in vitro studies; ref Investigator Brochure; cited from earlier work
[6] = tested on: IL‐1β release in whole blood; assay: Inhibition of IL‐1β release in whole blood upon ex vivo stimulation with LPS (TruCulture), UC patients; set-up: species or system human; conditions: for Inhibition of IL‐1β release compared to baseline: 450 mg
Experimental: as §2

[7] = Safety and tolerability in patients with ulcerative colitis; type: in vivo, human
Excerpt: The primary objective of this study was to evaluate the PK, safety, and tolerability of selnoflast. The main endpoints were the incidence and severity of adverse events (AEs), changes in vital signs, 12‐lead electrocardiogram (ECG) parameters, and clinical laboratory safety parameters. AEs were monitored throughout the study and at the 14‐day follow‐up visit. Safety assessments included recording of the incidence and type of treatment‐emergent adverse events (TEAEs), discontinuations, serious TEAEs, and adverse events of special interest (AESIs) (including cases of elevated alanine aminotransferase [ALT] or aspartate aminotransferase [AST] in combination with either elevated bilirubin or clinical jaundice). Vital signs, ECGs, blood chemistry and hematology panels, coagulation panels and urinalysis were assessed at screening and at various time points during the study. Changes in absolute lymphocyte count were also assessed. Blood samples for PK analyses were obtained pre‐dose and at various timepoints up to 24 h post‐dose throughout the 7‐day in‐clinic treatment period, as well as once during the 14‐day follow‐up visit. As the 1‐week duration of the study was too short for assessing clinical changes, no clinical assessments were planned. Further details are given in the study protocol (Supporting Information).

NLRP3 inflammasome = tested on: NLRP3 inflammasome; set-up: method as in RO7486967 Investigator Brochure; conditions: ref RO7486967 Investigator Brochure; cited from earlier work

SMILES: CCN1CCC(S(=O)(=O)NC(=O)Nc2c3c(cc4c2CCC4)CCC3)CC1 [Selnoflast, selnoflast]
- P-gp substrate status (P-glycoprotein (P-gP)): potential substrate
- Geboes score and Nancy index, difference between study arms (sigmoid colon tissue; baseline and Day 7): No notable differences
- Neutrophils in sigmoid colon tissue, change from baseline (sigmoid colon tissue; mean (± SD), active treatment arm, Day 7): −13.23 (± 140.76) cells/mm^2
- Patients with marked reduction from baseline in neutrophils in sigmoid colon tissue (sigmoid colon tissue; selnoflast‐treated patients, Day 7): Three out of the 13
- Stool calprotectin change from baseline (calprotectin): +4146.6 (± 12321.12) μg/g
- Change in plasma IL‐18 levels upon treatment (IL‐18): no significant changes
- Inhibition of IL‐1β release [1]: potent inhibitor
- IL‐1 gene signature, log2FC from baseline to Day 7 [2]: −1.14 [± 1.8] log2FC
- Inhibitory activity on NLRC4 inflammasome (NLRC4): no inhibitory activity
- Potential to cause direct hepatotoxicity ([3]; at therapeutically relevant concentrations, based on in vitro assessments): low
- Mitochondrial toxicity ([3]; in vitro): did not show mitochondrial toxicity
- Inhibition of IL‐1β release compared to baseline ([4]; over the dosing interval (24 hours)): over 90%
- Inhibition of IL‐1β release compared to baseline ([4]; over the dosing interval (24 hours), listed as RO7486967): 90%
- Inhibition of IL‐1β release compared to baseline ([4]; up to 10 h post‐dose): 99%
- BCRP substrate status [5]: potential substrate
- Inhibition of IL‐1β release compared to baseline ([6]; Day 1, from 30 min until at least 10 h post‐dose, mean (± SD)): > 95%
- inhibition at 450 mg ([6]; Homo sapiens, at trough (25–100 h post‐dose), 450 mg QD, read-out: Inhibition of IL‐1β release compared to baseline): ~90%
- Inhibition of IL‐1β release compared to baseline ([6]; just before the next administration on Day 2, mean (SD)): 91.2%
- Deaths ([7]; N = 13): 0
- Patients with at least one AE with fatal outcome ([7]; N = 13): 0
- AEs considered treatment‐related ([7]; human, in vivo, 7 days): 23.1%
- Dyspepsia, patients ([7]; human, in vivo, 7 days): 15.4%
- Headache, patients ([7]; human, in vivo, 7 days): 15.4%
- Patients with at least one AE leading to dose modification/interruption ([7]; human, in vivo, 7 days): 0
- Patients with at least one AE leading to withdrawal from treatment ([7]; human, in vivo, 7 days): 0
- Patients with at least one Related AE ([7]; human, in vivo, 7 days): 3 (23.1%)
- Patients with at least one Related AE leading to dose modification/ interruption ([7]; human, in vivo, 7 days): 0
- Patients with at least one Related AE leading to withdrawal from treatment ([7]; human, in vivo, 7 days): 0
- Patients with at least one Serious AE ([7]; human, in vivo, 7 days): 0
- Patients withdrawn from study due to AE ([7]; human, in vivo, 7 days): 0
- Severity of AEs ([7]; human, in vivo, 7 days): mild (Grade 1), with the exception of one AE of Grade 2 severity
- Effect on IL-1β release and cell death in vitro (NLRP3 inflammasome): inhibit IL-1β release and cell death in vitro

Source: PMC10644327, “A randomized, double‐blind phase 1b study evaluating the safety, tolerability, pharmacokinetics and pharmacodynamics of the NLRP3 inhibitor selnoflast in patients with moderate to severe active ulcerative colitis” (Clinical and Translational Medicine, 2023)
